The record followed here is US20250129078A1, “ERBB2 INHIBITORS” (Cogent Biosciences, Inc., priority 2023, published 2025).

In one experiment the target is ErbB2 V777L (Homo sapiens (Human), UniProt P04626, V777L). Kind of experiment: ErbB enzyme assay (CisBio HTRF-KinEASE-TK), ErbB2 V777L. The class given is biochemical. In short, it runs like this: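 HTRF KinEASE-TK tyrosine-kinase read-out of substrate phosphorylation after a final 1 h at ambient temperature, from the 655/620 nm emission ratio.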
For the next experiment, the target named is EGFR WT (Homo sapiens (Human), UniProt P00533). Description: ErbB enzyme assay (CisBio HTRF-KinEASE-TK), EGFR WT. In kind it is biochemical. The note with it: ATP at Km (25 μM), 1 h incubation. In short, it runs like this:
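Three-fold DMSO serial dilutions were added to kinase reactions and incubated 1 h at room temperature. Quench used 62.5 nM Sa-XL665 plus 0.25×TK-Ab-Cryptate in detection buffer, followed by another 1 h. Substrate phosphorylation was then measured by dual-wavelength HTRF.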
On the technique in general: TR-FRET usually uses a lanthanide donor and a delayed reading to cut background.

Molecules are shown by their SMILES. Where only a bound is given, the exact number is not on record here.

ErbB2 V777L, sequence (P04626 23-1255 V777L): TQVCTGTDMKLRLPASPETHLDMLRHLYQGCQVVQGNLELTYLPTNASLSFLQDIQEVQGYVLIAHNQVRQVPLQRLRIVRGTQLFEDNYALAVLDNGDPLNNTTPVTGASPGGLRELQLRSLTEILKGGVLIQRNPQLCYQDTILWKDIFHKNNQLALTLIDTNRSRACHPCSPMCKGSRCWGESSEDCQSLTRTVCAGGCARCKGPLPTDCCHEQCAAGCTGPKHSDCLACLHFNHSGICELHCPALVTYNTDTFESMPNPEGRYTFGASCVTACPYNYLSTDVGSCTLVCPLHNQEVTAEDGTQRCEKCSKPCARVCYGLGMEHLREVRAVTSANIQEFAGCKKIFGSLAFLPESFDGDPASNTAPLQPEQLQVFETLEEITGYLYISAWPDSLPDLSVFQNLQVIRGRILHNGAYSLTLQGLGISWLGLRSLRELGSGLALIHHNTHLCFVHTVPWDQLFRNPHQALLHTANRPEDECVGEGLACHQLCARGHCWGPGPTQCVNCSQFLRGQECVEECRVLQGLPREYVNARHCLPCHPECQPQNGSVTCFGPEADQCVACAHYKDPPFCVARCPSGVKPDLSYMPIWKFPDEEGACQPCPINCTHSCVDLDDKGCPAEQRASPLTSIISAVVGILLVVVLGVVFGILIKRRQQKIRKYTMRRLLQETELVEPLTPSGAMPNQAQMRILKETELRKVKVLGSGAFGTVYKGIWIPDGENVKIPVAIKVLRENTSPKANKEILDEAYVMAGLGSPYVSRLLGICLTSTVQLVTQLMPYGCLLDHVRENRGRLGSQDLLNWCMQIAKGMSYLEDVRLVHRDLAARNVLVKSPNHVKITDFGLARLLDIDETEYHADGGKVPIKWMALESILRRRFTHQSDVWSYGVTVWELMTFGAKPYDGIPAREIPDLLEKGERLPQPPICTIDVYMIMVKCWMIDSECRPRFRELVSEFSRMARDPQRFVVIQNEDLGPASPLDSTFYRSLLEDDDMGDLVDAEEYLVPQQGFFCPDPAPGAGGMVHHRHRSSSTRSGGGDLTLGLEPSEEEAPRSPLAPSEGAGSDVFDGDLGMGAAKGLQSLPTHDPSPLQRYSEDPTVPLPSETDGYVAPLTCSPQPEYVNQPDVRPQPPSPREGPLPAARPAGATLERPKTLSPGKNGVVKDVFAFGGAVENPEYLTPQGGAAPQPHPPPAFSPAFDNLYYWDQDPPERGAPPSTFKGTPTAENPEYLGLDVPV
EGFR WT, sequence (P00533 25-1210): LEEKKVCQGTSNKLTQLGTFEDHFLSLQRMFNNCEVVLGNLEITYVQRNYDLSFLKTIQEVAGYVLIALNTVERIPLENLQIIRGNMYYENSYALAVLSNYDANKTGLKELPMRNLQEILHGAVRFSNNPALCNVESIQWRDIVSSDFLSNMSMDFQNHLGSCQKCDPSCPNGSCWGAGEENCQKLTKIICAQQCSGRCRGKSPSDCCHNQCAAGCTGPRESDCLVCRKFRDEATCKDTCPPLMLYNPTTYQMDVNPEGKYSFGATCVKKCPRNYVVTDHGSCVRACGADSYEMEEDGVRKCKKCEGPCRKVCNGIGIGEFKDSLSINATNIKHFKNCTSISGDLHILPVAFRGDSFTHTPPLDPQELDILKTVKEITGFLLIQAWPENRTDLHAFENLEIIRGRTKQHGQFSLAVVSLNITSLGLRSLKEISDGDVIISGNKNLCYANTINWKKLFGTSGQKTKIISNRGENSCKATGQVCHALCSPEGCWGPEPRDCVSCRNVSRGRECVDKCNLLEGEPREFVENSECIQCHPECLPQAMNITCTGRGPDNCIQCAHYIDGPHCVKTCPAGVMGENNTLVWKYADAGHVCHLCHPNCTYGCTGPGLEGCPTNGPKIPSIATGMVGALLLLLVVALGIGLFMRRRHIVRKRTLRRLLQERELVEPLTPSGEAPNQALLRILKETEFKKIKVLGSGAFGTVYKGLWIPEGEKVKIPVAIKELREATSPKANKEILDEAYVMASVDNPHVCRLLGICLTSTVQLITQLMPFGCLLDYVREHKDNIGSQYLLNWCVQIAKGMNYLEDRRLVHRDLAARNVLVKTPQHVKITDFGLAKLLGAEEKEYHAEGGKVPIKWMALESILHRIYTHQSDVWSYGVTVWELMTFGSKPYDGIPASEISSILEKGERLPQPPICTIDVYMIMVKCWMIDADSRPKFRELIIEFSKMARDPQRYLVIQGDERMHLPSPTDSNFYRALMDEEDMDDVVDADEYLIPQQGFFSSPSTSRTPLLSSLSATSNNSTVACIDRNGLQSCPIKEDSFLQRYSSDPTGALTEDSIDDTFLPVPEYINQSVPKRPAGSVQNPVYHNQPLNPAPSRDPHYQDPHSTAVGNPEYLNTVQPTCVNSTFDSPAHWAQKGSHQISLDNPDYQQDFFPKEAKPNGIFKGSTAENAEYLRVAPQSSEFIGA

Broadly, the IC50 is the concentration that inhibits the measured activity by half. The low end stands for greater potency, the high end for weaker potency. For `C=CC(=O)N1CCN(c2ncc3ncnc(Nc4cc(Cl)c(Oc5ccc6c(c5)nnn6C)cc4F)c3n2)CC1` [Compound 66, 1-(4-(8-((5-chloro-2-fluoro-4-((1-methyl-1H-benzo[d][1,2,3]triazol-5-yl)oxy)phenyl)amino)pyrimido[5,4-d]pyrimidin-2-yl)piperazin-1-yl)prop-2-en-1-one], the IC50 fell in the range of 50 to 100 nM against ErbB2 V777L and 100 to 500 nM on EGFR WT.

As to `C=CC(=O)N1CCN(c2ccc3ncnc(Nc4ccc(Oc5ccc6c(c5)nnn6C(F)F)c(C)c4)c3n2)CC1(C)C` [Compound 324, 1-(4-(4-((4-((1-(difluoromethyl)-1H-benzo[d][1,2,3]triazol-5-yl)oxy)-3-methylphenyl)amino)pyrido[3,2-d]pyrimidin-6-yl)-2,2-dimethylpiperazin-1-yl)prop-2-en-1-one], the IC50 at ErbB2 V777L and against EGFR WT was 100 to 500 nM each time.

For `C=CC(=O)N1CCN(c2ncc3ncnc(Nc4ccc(Oc5ccc6c(c5)nnn6C)c(C)c4)c3n2)C[C@@H]1C1CC1` [Compound 117, (S)-1-(2-cyclopropyl-4-(8-((3-methyl-4-((1-methyl-1H-benzo[d][1,2,3]triazol-5-yl)oxy)phenyl)amino)pyrimido[5,4-d]pyrimidin-2-yl)piperazin-1-yl)prop-2-en-1-one], the IC50 on ErbB2 V777L was 100 to 500 nM; on EGFR WT, at least 1000 nM.

Take `C=CC(=O)N1CCN(c2ccc3ncnc(Nc4cc(C)c(Oc5ccc6c(c5)ncn6C(F)F)cc4OC)c3n2)CC1` [Compound 370, 1-(4-(4-((4-((1-(difluoromethyl)-1H-benzo[d]imidazol-5-yl)oxy)-2-methoxy-5-methylphenyl)amino)pyrido[3,2-d]pyrimidin-6-yl)piperazin-1-yl)prop-2-en-1-one]: the values for the IC50 against ErbB2 V777L and at EGFR WT were 50 to 100 nM and 100 to 500 nM, respectively.

Take `C=CC(=O)N[C@@H]1C[C@H](F)CN(c2ccc3ncnc(Nc4ccc(Oc5ccc6c(c5)nnn6C)c(C)c4F)c3n2)C1` [Compound 298, N-((3R,5S)-5-fluoro-1-(4-((2-fluoro-3-methyl-4-((1-methyl-1H-benzo[d][1,2,3]triazol-5-yl)oxy)phenyl)amino)pyrido[3,2-d]pyrimidin-6-yl)piperidin-3-yl)acrylamide]: the figures for the half-inhibitory concentration (IC50) against ErbB2 V777L and on EGFR WT were 50 to 100 nM and below 50 nM, respectively.

As to `C=CC(=O)N1CCN(c2ccc3ncnc(Nc4ccc(Oc5cc6nnn(C)c6c(F)c5C)c(C)c4)c3n2)C[C@H]1C` [Compound 299, (R)-1-(4-(4-((4-((7-fluoro-1,6-dimethyl-1H-benzo[d][1,2,3]triazol-5-yl)oxy)-3-methylphenyl)amino)pyrido[3,2-d]pyrimidin-6-yl)-2-methylpiperazin-1-yl)prop-2-en-1-one], the IC50 against ErbB2 V777L is 100 to 500 nM; against EGFR WT, at least 1000 nM.

Consider `C=CC(=O)N1CCN(c2ncc3ncnc(Nc4cc(F)c(Oc5ccc6c(c5)nnn6C)cc4F)c3n2)CC1` [Compound 31, 1-(4-(8-((2,5-difluoro-4-((1-methyl-1H-benzo[d][1,2,3]triazol-5-yl)oxy)phenyl)amino)pyrimido[5,4-d]pyrimidin-2-yl)piperazin-1-yl)prop-2-en-1-one], for which the IC50 on ErbB2 V777L and against EGFR WT was 100 to 500 nM in each case.

Take `C/C=C/C(=O)N1CCN(c2ncc3ncnc(Nc4ccc(Oc5ccc6c(c5)nnn6C)c(C)c4)c3n2)CC1` [Compound 34, (E)-1-(4-(8-((3-methyl-4-((1-methyl-1H-benzo[d][1,2,3]triazol-5-yl)oxy)phenyl)amino)pyrimido [5,4-d]pyrimidin-2-yl)piperazin-1-yl)but-2-en-1-one]: the figures for the IC50 on ErbB2 V777L and against EGFR WT were 100 to 500 nM and at least 1000 nM, respectively.

Regarding `C=CC(=O)N1C[C@@H](C)N(c2ncc3ncnc(Nc4ccc(Oc5ccc6c(c5)nnn6C)c(C)c4)c3n2)C[C@@H]1C` [Compound 188, 1-((2S,5R)-2,5-dimethyl-4-(8-((3-methyl-4-((1-methyl-1H-benzo[d][1,2,3]triazol-5-yl)oxy)phenyl)amino)pyrimido[5,4-d]pyrimidin-2-yl)piperazin-1-yl)prop-2-en-1-one], the IC50 at ErbB2 V777L is 500 to 1000 nM; at EGFR WT, at least 1000 nM.

Turning to `C=CC(=O)N1CCCN(c2ccc3ncnc(Nc4cc(C)c(Oc5ccc6c(c5)nnn6C)cc4OC)c3n2)CC1` [Compound 264, 1-(4-(4-((2-methoxy-5-methyl-4-((1-methyl-1H-benzo[d][1,2,3]triazol-5-yl)oxy)phenyl)amino)pyrido[3,2-d]pyrimidin-6-yl)-1,4-diazepan-1-yl)prop-2-en-1-one], the IC50 on ErbB2 V777L and at EGFR WT was 500 to 1000 nM each time.

Regarding `C=CC(=O)N1CCN(c2ncc3ncnc(Nc4ccc(Oc5ccc6c(c5)nnn6C)c(C)c4C)c3n2)CC1` [Compound 65, 1-[4-[4-[2,3-dimethyl-4-(1-methylbenzotriazol-5-yl)oxy-anilino]pyrimido[5,4-d]pyrimidin-6-yl]piperazin-1-yl] prop-2-en-1-one], the IC50 on ErbB2 V777L and at EGFR WT was 100 to 500 nM throughout.

`C=CC(=O)N1CCN(c2ccc3ncnc(Nc4ccc(Oc5ccc6c(c5)nnn6C)c(C)c4F)c3n2)C[C@H]1C(C)C` [Compound 259, (R)-1-(4-(4-((2-fluoro-3-methyl-4-((1-methyl-1H-benzo[d][1,2,3]triazol-5-yl)oxy)phenyl)amino)pyrido[3,2-d]pyrimidin-6-yl)-2-isopropylpiperazin-1-yl)prop-2-en-1-one]: the results for the IC50 against ErbB2 V777L and against EGFR WT were 500 to 1000 nM and at least 1000 nM, respectively.

For the compound `C=CC(=O)N1CCN(c2nc3c(Nc4ccc(Oc5ccc6c(c5)nnn6C)c(C)c4)ncnc3cc2C)CC1` [Compound 374, 1-(4-(7-methyl-4-((3-methyl-4-((1-methyl-H-benzo[d][1,2,3]triazol-5-yl)oxy)phenyl)amino)pyrido[3,2-d]pyrimidin-6-yl)piperazin-1-yl)prop-2-en-1-one], the IC50 on ErbB2 V777L is 100 to 500 nM; on EGFR WT it was 500 to 1000 nM.

Consider `C=CC(=O)N(C)[C@H]1C[C@H](Oc2ncc3ncnc(Nc4ccc(Oc5cc(F)c6c(c5)ncn6C)c(C)c4)c3n2)C1` [Compound 386, N-((1r,3r)-3-((8-((4-((7-fluoro-1-methyl-1H-benzo[d]imidazol-5-yl)oxy)-3-methylphenyl)amino)pyrimido[5,4-d]pyrimidin-2-yl)oxy)cyclobutyl)-N-methylacrylamide], for which the figures for the IC50 against ErbB2 V777L and against EGFR WT were 50 to 100 nM and 100 to 500 nM, respectively.

Consider `C=C(F)C(=O)N1CCN(c2ncc3ncnc(Nc4ccc(Oc5ccc6c(c5)nnn6C)c(C)c4)c3n2)C[C@@H]1C(F)(F)F` [Compound 231, (R)-2-fluoro-1l-(4-(8-((3-methyl-4-((1-methyl-1H-benzo[d][1,2,3]triazol-5-yl)oxy)phenyl)amino)pyrimido[5,4-d]pyrimidin-2-yl)-2-(trifluoromethyl)piperazin-1-yl)prop-2-en-1-one], for which the IC50 at ErbB2 V777L and on EGFR WT was 500 to 1000 nM throughout.

In the case of `C=CC(=O)NC1CC2(C1)CN(c1ncc3ncnc(Nc4ccc(Oc5ccc6c(c5)nnn6C)c(C)c4)c3n1)C2` [Compound 225, N-(2-(8-((3-methyl-4-((1-methyl-1H-benzo[d][1,2,3]triazol-5-yl)oxy)phenyl)amino)pyrimido[5,4-d]pyrimidin-2-yl)-2-azaspiro[3.3]heptan-6-yl)acrylamide], the IC50 against ErbB2 V777L lay in the range of 100 to 500 nM; on EGFR WT, 500 to 1000 nM.
